The values that follow are results of earlier work, collected in Sander's compilation of Henry's law constants (doi:10.1080/01483918608076621).

A short description of the data set: Henry solubility constant Hcp at 298.15 K (mol/(m3 Pa)). The conditions noted are these: reference: Janini and Quaddora (1986); cited value.
For `Cc1ccccc1O` [1-hydroxy-2-methylbenzene], the “Henry solubility constant Hcp” value was 2.6.
Take `CC(=O)OC(C)C` [2-propyl ethanoate]: the “Henry solubility constant Hcp” value was 0.029.
`CCC(=O)CC` [3-pentanone]: the “Henry solubility constant Hcp” value was 0.2.
As for `CCCC(C)=O` [2-pentanone], the “Henry solubility constant Hcp” value is 0.091.
Consider `CCOC(C)=O` [ethyl ethanoate], for which the “Henry solubility constant Hcp” value was 0.047.
Turning to `Cc1ccc(O)cc1` [1-hydroxy-4-methylbenzene], the “Henry solubility constant Hcp” value was 5.2.
For `Cc1cccc(O)c1` [1-hydroxy-3-methylbenzene], the “Henry solubility constant Hcp” value is 6.1.
As for `CCCCOC(C)=O` [butyl ethanoate], the “Henry solubility constant Hcp” value is 0.035.
As for `CCCCCC(C)=O` [2-heptanone], the “Henry solubility constant Hcp” value is 0.35.
As for `CCCC=O` [butanal], the “Henry solubility constant Hcp” value is 0.054.
Consider `CC(C)=O` [propanone], for which the “Henry solubility constant Hcp” value is 0.03.
Consider `CCCOC(C)=O` [propyl ethanoate], for which the “Henry solubility constant Hcp” value is 0.044.
